Laboratory results reported in article PMC6018403 (Frontiers in Pharmacology, 2018).
Where two headings read alike, the source gives them in different places. Each block holds one compound with its values, some of them ahead of it.

Test: Multi-component pharmacokinetic study of GQD, GQD-GC and single herb extracts in rats (plasma, LC/MS/MS)
Type: in vivo, Sprague-Dawley rats
Conditions: for AUC(0-t) / Cmax / half-life / Tmax: male, Sprague-Dawley, rat; for bioavailability in the GQD group compared with the Ge-Gen group / plasma concentrations, effect of GQD compared with Gan-Cao: rats, oral
Protocol: Male Sprague-Dawley rats (220–250 g) were used for PK study, and the details were described in Supplemental Data. All procedures were in accordance with the National Institutes of Health Guide for the Care and Use of Laboratory Animals.
For PK study of GQD and its component herbs, rats were randomly divided into six groups (n = 10 for each group) before oral administration.
All blood samples were immediately centrifuged at 6,000 rpm (4°C) for 20 min to obtain plasma. The plasma samples were stored at −80°C.
A Finnigan TSQ Quantum triple quadrupole mass spectrometer was connected to a Surveyor HPLC via ESI interface (ThermoFisher). High purity nitrogen was used as the sheath and auxiliary gas; Ultra-high purity argon was used as the collision gas (1.5 mTorr). Q1 and Q3 quadrupoles were set at unit resolution. […] The column temperature was 40°C. The mobile phase consisted of acetonitrile containing 2% (v/v) methanol (A) and water containing 0.1% (v/v) formic acid (B). […] An aliquot of 5 μL was injected for analysis. UV spectra were obtained by scanning from 200 to 400 nm. The mass spectrometer was operated in the (+)-ESI mode. The optimized parameters were as follows: sheath gas (N2), 50 arb; auxiliary gas (N2), 5 arb; spray voltage, 4.0 kV; capillary temperature, 330°C; collision energy, see Table S1. Analytes were detected in the selected reaction monitoring (SRM) mode. Data were processed by Xcalibur 2.0.7 software (ThermoFisher).
LC/MS/MS calibration and quantitation data were processed with Xcalibur 2.0.7 software (ThermoFisher). The maximal plasma concentrations (Cmax) and their time of occurrence (Tmax) were obtained directly from the measured data. Other pharmacokinetic parameters were calculated by non-compartment or compartment models using WinNonlin® software (v6.1, Pharsight). Unless otherwise stated, results were expressed as the mean ± SD. Statistical significance in differences of the means was determined by Student's t–test, with a significance level of P < 0.05.
Herbal materials and extracts.
The four component herbs, Puerariae Lobatae Radix (Ge-Gen, GG), Scutellariae Radix (Huang-Qin, HQ), Coptidis Rhizoma (Huang-Lian, HL), and Glycyrrhizae Radix et Rhizoma Praeparata cum Melle (Gan-Cao, GC) were purchased from Tianheng Pharmacy. GQD was prepared by decocting the four component herbs […]
pre-extraction of Ge-Gen using 200 mL of water for 0.5 h. The decoctions were combined, filtered, and concentrated in vacuum at 50 °C. GQD-GC was prepared using the same procedure, except that Gan-Cao was removed from the formula. Final concentration of the GQD-GC extract was equivalent to 1.0 g of the crude drugs per mL. For single herb extracts, the herbs were decocted in 8-fold volume of water for […]
Final concentrations of the extracts were 1.0 g/mL for Ge-Gen, and 0.5 g/mL for Huang-Qin, Huang-Lian and […]
For pharmacokinetic study, Male Sprague-Dawley rats (220-250 g) were obtained from the Laboratory Animal Center of Peking University Health Science Center. The […]
The rats had free access to tap water and soy-free custom diet (Ke’ao Xieli Co.). All procedures were in accordance with the National Institutes of Health Guide for the Care and Use of Laboratory Animals […]
Experimental details for the PK study
1. Preparation of internal standard solution, calibration standard solutions, and quality control solutions […]
internal standard solution. Reference standard compounds were dissolved in the internal standard solution to prepare individual stock solutions (1.0 mg/mL). These […]
each compound. The standard solution was then serially diluted to obtain calibration […]
Quality control stock solutions were prepared at three concentration levels as high QC (HQC), middle QC (MQC), and low QC (LQC), based on linear ranges of the analytes.
2.1. Sample preparation for pharmacokinetic study
The calibration standard and quality control solutions for pharmacokinetic study were […]

[1] = in vivo, po, 9.45 g/kg, GG (Ge-Gen) group: rats, oral extract 9.45 g/kg, plasma, read-out: AUClast
[2] = in vivo, po, 16.5 g/kg, GQD-GC group (GQD without Gan-Cao): rats, oral 16.5 g/kg, plasma, read-out: AUClast
[3] = in vivo, po, 18.9 g/kg, GQD group: rats, oral GQD extract 18.9 g/kg, plasma, read-out: AUClast
[4] = in vivo, GG (Ge-Gen) group: rats, oral extract 9.45 g/kg, plasma, read-out: Cmax
[5] = in vivo, GG (Ge-Gen) group: rats, oral extract 9.45 g/kg, plasma, read-out: T1/2 (converted)
[6] = in vivo, GG (Ge-Gen) group: rats, oral extract 9.45 g/kg, plasma, read-out: Tmax
[7] = in vivo, GQD group: rats, oral GQD extract 18.9 g/kg, plasma, read-out: Cmax
[8] = in vivo, GQD group: rats, oral GQD extract 18.9 g/kg, plasma, read-out: T1/2 (converted)
[9] = in vivo, GQD group: rats, oral GQD extract 18.9 g/kg, plasma, read-out: Tmax
[10] = in vivo, GQD-GC group (GQD without Gan-Cao): rats, oral 16.5 g/kg, plasma, read-out: Cmax
[11] = in vivo, GQD-GC group (GQD without Gan-Cao): rats, oral 16.5 g/kg, plasma, read-out: T1/2 (converted)
[12] = in vivo, GQD-GC group (GQD without Gan-Cao): rats, oral 16.5 g/kg, plasma, read-out: Tmax
[13] = plasma, po, 3.54 g/kg, HL (Huang-Lian) group: rats, oral extract 3.54 g/kg, plasma, read-out: AUClast
[14] = plasma, po, 16.5 g/kg, GQD-GC group (GQD without Gan-Cao): rats, oral 16.5 g/kg, plasma, read-out: AUClast
[15] = plasma, po, 18.9 g/kg, GQD group: rats, oral GQD extract 18.9 g/kg, plasma, read-out: AUClast
[16] = GQD group: rats, oral GQD extract 18.9 g/kg, plasma, read-out: Cmax
[17] = GQD group: rats, oral GQD extract 18.9 g/kg, plasma, read-out: T1/2 (converted)
[18] = GQD group: rats, oral GQD extract 18.9 g/kg, plasma, read-out: Tmax
[19] = GQD-GC group (GQD without Gan-Cao): rats, oral 16.5 g/kg, plasma, read-out: Cmax
[20] = GQD-GC group (GQD without Gan-Cao): rats, oral 16.5 g/kg, plasma, read-out: T1/2 (converted)
[21] = GQD-GC group (GQD without Gan-Cao): rats, oral 16.5 g/kg, plasma, read-out: Tmax
[22] = HL (Huang-Lian) group: rats, oral extract 3.54 g/kg, plasma, read-out: Cmax
[23] = HL (Huang-Lian) group: rats, oral extract 3.54 g/kg, plasma, read-out: T1/2 (converted)
[24] = HL (Huang-Lian) group: rats, oral extract 3.54 g/kg, plasma, read-out: Tmax
[25] = in vivo, po, 3.54 g/kg, AUClast

SMILES: O=c1c(-c2ccc(O)cc2)coc2cc(O[C@@H]3O[C@H](CO)[C@@H](O)[C@H](O)[C@H]3O)ccc12 [Compound 1, Daidzin]
AUC(0-t) [1]: 290 ± 42.2 ng·h/mL
AUC(0-t) (in vivo, po, 9.45 g/kg, Ge-Gen group: rats, oral 9.45 g/kg, plasma, read-out: AUClast): 290 ± 42.2 ng·h/mL
AUC(0-t) [2]: 282 ± 61.6 ng·h/mL
AUC(0-t) [3]: 346 ± 30.3 ng·h/mL
AUC(0-t) (in vivo, po, 18.9 g/kg, GQD group: rats, oral GQD 18.9 g/kg (1.5-fold of clinical dosage), plasma, read-out: AUClast): > 300 ng·h/mL
Cmax [4]: 58 ± 0.77 ng/mL
half-life [5]: 0.74 ± 0.33 h
Tmax [6]: 0.38 ± 0.04 h
Cmax [7]: 27.4 ± 3.34 ng/mL
half-life [8]: 3.96 ± 1.02 h
Tmax [9]: 0.88 ± 0.11 h
Cmax [10]: 52.4 ± 2.21 ng/mL
half-life [11]: 1.63 ± 0.14 h
Tmax [12]: 0.58 ± 0.24 h
bioavailability in the GQD group compared with the Ge-Gen group: higher

AUC(0-t) [13]: 16.7 ± 9.45 ng·h/mL
AUC(0-t) [14]: 26.4 ± 11 ng·h/mL
AUC(0-t) [15]: 29.4 ± 21.3 ng·h/mL
Cmax [16]: 7.21 ± 3.62 ng/mL
half-life [17]: 4.84 ± 0.13 h
Tmax [18]: 0.58 ± 0.12 h
Cmax [19]: 9.35 ± 1.71 ng/mL
half-life [20]: 4.97 ± 0.85 h
Tmax [21]: 0.54 ± 0.17 h
Cmax [22]: 3.53 ± 0.34 ng/mL
half-life [23]: 4.34 ± 0.18 h
Tmax [24]: 0.58 ± 0.23 h
SMILES: COc1cc2c(cc1OC)-c1cc3ccc4c(c3c[n+]1CC2)OCO4 [Compound 22, epiberberine]

AUC(0-t) (plasma, po, 2.36 g/kg, GC (Gan-Cao) group: rats, oral extract 2.36 g/kg, plasma, read-out: AUClast): 19.9 ± 7.99 ng·h/mL
AUC(0-t) [15]: 94.2 ± 32.6 ng·h/mL
Cmax (GC (Gan-Cao) group: rats, oral extract 2.36 g/kg, plasma, read-out: Cmax): 1.71 ± 1 ng/mL
half-life (GC (Gan-Cao) group: rats, oral extract 2.36 g/kg, plasma, read-out: T1/2 (converted)): 3.22 ± 0.87 h
Tmax (GC (Gan-Cao) group: rats, oral extract 2.36 g/kg, plasma, read-out: Tmax): 0.33 ± 0.13 h
Cmax [16]: 8.62 ± 0.39 ng/mL
half-life [17]: 23.8 ± 16.8 h
Tmax [18]: 2.92 ± 0.08 h
plasma concentrations, effect of GQD compared with Gan-Cao: improved
SMILES: COc1ccc(-c2coc3cc(O)ccc3c2=O)cc1 [Compound 32, formononetin]

Cmax (in vivo, po, 3.54 g/kg): 43.6 ± 3.04 ng/mL
Tmax (in vivo, po, 3.54 g/kg): 0.08 ± 0.53 h
half-life (in vivo, po, 3.54 g/kg): 5.29 ± 2.33 h
AUC(0-t) [25]: 351 ± 174 ng·h/mL
SMILES: COc1c(O)cc2oc(-c3ccccc3)cc(=O)c2c1O [Compound 9, oroxylin A]

AUC(0-t) (plasma, po, 9.45 g/kg, GG (Ge-Gen) group: rats, oral extract 9.45 g/kg, plasma, read-out: AUClast): 85 ± 19.2 ng·h/mL
AUC(0-t) [14]: 26 ± 7.29 ng·h/mL
AUC(0-t) [15]: 168 ± 83.3 ng·h/mL
Cmax (GG (Ge-Gen) group: rats, oral extract 9.45 g/kg, plasma, read-out: Cmax): 18.4 ± 5.1 ng/mL
half-life (GG (Ge-Gen) group: rats, oral extract 9.45 g/kg, plasma, read-out: T1/2 (converted)): 8.98 ± 2.34 h
Tmax (GG (Ge-Gen) group: rats, oral extract 9.45 g/kg, plasma, read-out: Tmax): 0.39 ± 0.17 h
Cmax [16]: 16 ± 5.44 ng/mL
half-life [17]: 7.03 ± 2.31 h
Tmax [18]: 0.76 ± 3.76 h
Cmax [19]: 6.87 ± 2.05 ng/mL
half-life [20]: 5.23 ± 1.35 h
Tmax [21]: 0.52 ± 0.65 h
bioavailability in the GQD group compared with the Ge-Gen group: higher
SMILES: COc1ccc(-c2coc3c(C4OC(COC5OCC(O)(CO)C5O)C(O)C(O)C4O)c(O)ccc3c2=O)cc1 (stereo not shown) [Compound 5, formononetin 8-C-apiofuranosyl(1,6)glucoside]

SMILES: COc1cc(-c2coc3c(C4OC(COC5OCC(O)(CO)C5O)C(O)C(O)C4O)c(O)ccc3c2=O)ccc1O (stereo not shown) [Compound 37, 3'-methoxymirificin]
AUC(0-t) [1]: 47.4 ± 28.7 ng·h/mL
AUC(0-t) [2]: 42.5 ± 11.3 ng·h/mL
AUC(0-t) [3]: 86.3 ± 23.9 ng·h/mL
Cmax [4]: 11.6 ± 0.56 ng/mL
half-life [5]: 1.37 ± 0.19 h
Tmax [6]: 0.36 ± 0.74 h
Cmax [7]: 9.94 ± 3.68 ng/mL
half-life [8]: 1.04 ± 0.04 h
Tmax [9]: 0.36 ± 0.03 h
Cmax [10]: 7.22 ± 3.27 ng/mL
half-life [11]: 1.62 ± 0.39 h
Tmax [12]: 0.35 ± 0.42 h

SMILES: O=C(/C=C/c1ccc(O[C@@H]2O[C@H](CO)[C@@H](O)[C@H](O)[C@H]2O)cc1)c1ccc(O)cc1O [Compound 27, isoliquiritin]
AUC(0-t) (in vivo, po, 2.36 g/kg, GC (Gan-Cao) group: rats, oral extract 2.36 g/kg, plasma, read-out: AUClast): 8.46 ± 2.99 ng·h/mL
AUC(0-t) [3]: 11.9 ± 2.4 ng·h/mL
Cmax (in vivo, GC (Gan-Cao) group: rats, oral extract 2.36 g/kg, plasma, read-out: Cmax): 2.17 ± 0.98 ng/mL
half-life (in vivo, GC (Gan-Cao) group: rats, oral extract 2.36 g/kg, plasma, read-out: T1/2 (converted)): 0.91 ± 0.08 h
Tmax (in vivo, GC (Gan-Cao) group: rats, oral extract 2.36 g/kg, plasma, read-out: Tmax): 0.4 ± 1.23 h
Cmax [7]: 2.59 ± 2.43 ng/mL
half-life [8]: 1.62 ± 0.33 h
Tmax [9]: 0.49 ± 1.01 h
plasma concentrations, effect of GQD compared with Gan-Cao: improved

AUC(0-t) [13]: 556 ± 224 ng·h/mL
AUC(0-t) [14]: 47.3 ± 9.31 ng·h/mL
AUC(0-t) [15]: 198 ± 74.9 ng·h/mL
AUC(0-t) (plasma, po, 18.9 g/kg, GQD group: rats, oral GQD 18.9 g/kg (1.5-fold of clinical dosage), plasma, read-out: AUClast): > 100 ng·h/mL
Cmax [16]: 19.7 ± 5.67 ng/mL
half-life [17]: 8.35 ± 1.26 h
Tmax [18]: 4.13 ± 1.21 h
Cmax [19]: 5.21 ± 1.2 ng/mL
half-life [20]: 4.54 ± 1.43 h
Tmax [21]: 0.28 ± 0.13 h
Cmax [22]: 76.4 ± 23.4 ng/mL
half-life [23]: 10.2 ± 4.34 h
Tmax [24]: 4.21 ± 3.47 h
SMILES: COc1ccc2c(c1O)-c1c(O)c(OC)cc3c1[C@H](C2)[N+](C)(C)CC3 [Compound 19, magnoflorine]

Cmax (in vivo, po, 3.54 g/kg): 4.1 ± 0.44 ng/mL
Tmax (in vivo, po, 3.54 g/kg): 0.58 ± 0.23 h
half-life (in vivo, po, 3.54 g/kg): 4.87 ± 1.43 h
AUC(0-t) [25]: 41.3 ± 1.34 ng·h/mL
SMILES: O=c1cc(-c2ccccc2)oc2cc(O)cc(O)c12 [Compound 18, chrysin]
